Test system: HT-29 cells
Conditions: 5 mM; p<0.01 vs control
Description: FIG. 20. Mitochondrial calorimetry. HT-29 cells were treated with acetate (5 mM) or without (Control) and assessed for ATP production by the Seahorse assay in vitro.

With `CC(=O)O` [Acetate] the ATP production was “significantly increase”.
